Measurements from the NIST ThermoML archive (doi:10.1016/j.jct.2005.10.013).

Assay: mn = molality of the nth substance listed, in mol/kg
Conditions: 101 kPa, Liquid, Sing-around technique in a fixed-path interferometer

CN(CCO)CCO [N-methyldiethanolamine] + O
speed of sound [m/s]
Conditions | m1 = 0.3067 | m1 = 0.5017 | m1 = 0.7035 | m1 = 0.8982 | m1 = 1.088 | m1 = 1.357 | m1 = 1.652 | m1 = 2.161
283.15 K | 1474.2 | 1489.7 | 1505.1 | 1519.3 | 1532.8 | 1550.9 | 1569.5 | 1598.7
298.15 K | 1520 | 1532.9 | 1545.8 | 1557.6 | 1568.7 | 1583.6 | 1598.9 | 1622.6
313.15 K | 1547.7 | 1557.7 | 1567.7 | 1576.9 | 1585.5 | 1597 | 1608.8 | 1626.9
